# Legend:
# [1] = system: thermostable β-xylosidase OJ1M-273-1 (GH3 family), SEQ ID NO: 2, from hot spring soil metagenome OJ1, expressed in E. coli, purified; experiment: Kinetics of PNP substrate hydrolysis by OJ1M-273-1 β-xylosidase; format: biochemical; details: 105° C., pH 5 acetate buffer; for Vmax (maximum initial rate of hydrolysis) / Km: 10 min, enzyme diluted to 0.01 mg/mL, Michaelis-Menten fit; for Km: read-out: Km (Michaelis constant); for Kcat/Km (catalytic efficiency): calculated from fitted Vmax and Km
# Experimental: The gene recombinant E. coli homogeneous supernatant was loaded onto an ion exchange column HiTrap Q HP (manufactured by GE Healthcare, Inc.) equilibrated with a 50 mM Tris-HCl buffer (pH 8.0), and a medium-high pressure liquid chromatography system AKTA design (manufactured by GE Healthcare, Inc.) was used to fractionate proteins with a concentration gradient of 0 to 50% in a 50 mM Tris-HCl buffer (pH 8.0) containing 1 M of NaCl. […] The fractions with β-xylosidase activity following the buffer exchange were loaded onto a hydrophobic interaction separation column HiTrap Phenyl HP (manufactured by GE Healthcare, Inc.) equilibrated with the same buffer solution, and the proteins were fractionated with a concentration gradient of 0 to 100% in a 50 mM Tris-HCl buffer (pH 8.0). […] The concentrated sample was loaded onto a gel filtration column Hiload 26/60 superdex 200 pg (manufactured by GE Healthcare, Inc.) equilibrated with a 50 mM Tris-HCl buffer (pH 8.0) containing 150 mM of NaCl, and was fractionated by passing a volume of the same buffer equivalent to 1 to 1.5 times the column volume through the column at a flow rate of 2 to 3 mL/min.
# PNPX was used as the substrate for measuring the β-xylosidase activity. A solution prepared by dissolving PNPX (manufactured by Sigma-Aldrich Co. LLC.) in water to obtain a prescribed final concentration was used as the substrate solution. The PNPX substrate solutions used in the experiments described below all used aqueous solutions of PNPX prepared by the above method. In the measurements, a solution prepared by diluting the purified enzyme obtained in section <6> above with a 0.05 M Tris-HCl buffer (pH 8.0) to obtain a concentration of 0.1 to 0.01 mg/mL was used.
# The reaction solution was composed of 6 μL of the diluted purified enzyme, 294 μL of purified water, 150 μL of a 200 mM acetate buffer (pH 5), and 150 μL of a 20 mM PNPX aqueous solution.
# The reaction was performed at 60° C. to 115° C. for 10 minutes using a ReactiTherm (manufactured by Thermo Fisher Scientific Inc.). A glass vial with a volume of 1.5 mL was used as the reaction vessel, and the inside of the vial was pre-coated with a 1.5% by mass aqueous solution of BSA in order to suppress enzyme protein adsorption. In all measurements, a mixed solution prepared by replacing the gene recombinant E. coli homogenous supernatant or the purified enzyme with a 50 mM Tris-HCl buffer (pH 8.0) and then reacting the solution under the same conditions was used as a control. Further, the mixed solution containing the enzyme (the gene recombinant E. coli homogenous supernatant or the purified enzyme), the purified water and the buffer was held at the reaction temperature for five minutes (pre-incubation), the substrate solution was then added, and the reaction was performed. In each case, following completion of the 10-minute reaction, the reaction was halted by adding a 0.2 M Na2CO3 solution to the reaction solution in a volume equal to that of the mixed solution, and the resulting mixture was then centrifuged for 5 minutes to obtain a supernatant. The amount of p-nitrophenol in the supernatant was determined by measuring the absorbance at 420 nm using a spectrophotometer, calculating the amount of p-nitrophenol in the supernatant using a calibration curve prepared with p-nitrophenol, and then determining the amount of p-nitrophenol produced by the enzymatic hydrolysis on the basis of the difference from the control. The enzymatic activity for producing 1 μmol of p-nitrophenol per minute was defined as 1 U, and the value obtained by dividing this activity by the amount of protein was defined as the specific activity (U/mg). Each measurement was performed for three independent experiments, and a mean value and a standard error were determined.
# The maximum initial rate (Vmax) of hydrolysis, the Michaelis constant (Km) and the catalytic efficiency (Kcat/Km) were investigated for PNP substrate hydrolysis by OJ1M-273-1. […]
# [2] = system: thermostable 1-xylosidase having an optimum temperature of 95° C. (Non-Patent Document 7, Shi et al., 2013); details: PNPX as substrate; cited from earlier work
Structure (SMILES),Vmax (maximum initial rate of hydrolysis) [1],Km [1],Kcat/Km (catalytic efficiency) [1],catalytic efficiency Kcat/Km [2]
"O=[N+]([O-])c1ccc(O[C@@H]2O[C@@H](CO)[C@H](O)[C@H]2O)cc1 [PNPAF, p-nitrophenyl-α-L-arabinofuranoside]",914.5 U/mg,13.7 mM,87.7 mM⁻¹ s⁻¹,
"O=[N+]([O-])c1ccc(O[C@@H]2OC[C@H](O)[C@H](O)[C@H]2O)cc1 [PNPAP, p-nitrophenyl-α-L-arabinopyranoside]",838.5 U/mg,20.6 mM,53.6 mM⁻¹ s⁻¹,
"O=[N+]([O-])c1ccc(O[C@@H]2OC[C@@H](O)[C@H](O)[C@H]2O)cc1 [PNPX, p-nitrophenyl-β-D-xylopyranoside]",86.0 U/mg,0.44 mM,259.8 mM⁻¹ s⁻¹,1173.4 mM⁻¹ s⁻¹

# Reference: patent publication US9523108B2, “Thermostable β-xylosidase” (HONDA MOTOR CO., LTD., priority 2014, dated 2016)
